Laboratory results reported in PubChem BioAssay (NCI).
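Assay format: 96-well plates, 48-hour exposure. GI50 = concentration required for 50% inhibition of growth. TGI: total growth inhibition.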 Where a SMILES comes first, the peptide text is derived from it. [ ]: non-standard residue; d: D form. The star is where a group is joined. ξ: configuration not given here. ξNMe2Val = CC(C)C(C(=O)*)N(C)C; NMeV = CN[CH](C(=O)O)C(C)C; NHBn = c1ccc(CN*)cc1

What was measured:
Assay in all cases: inhibition of tumour cell growth, NCI panel, 48 h
SW-620 colon = test system: SW-620 colon
HOP-62 NSCLC = test system: HOP-62 NSCLC
OVCAR-4 ovarian = test system: OVCAR-4 ovarian
MDA-MB-231 breast = test system: MDA-MB-231 breast
COLO 205 colon = test system: COLO 205 colon
NCI-H460 lung = test system: NCI-H460 lung
RXF 393 renal = test system: RXF 393 renal
SK-OV-3 ovarian = test system: SK-OV-3 ovarian
HL-60(TB) leukemia = test system: HL-60(TB) leukemia
SNB-75 CNS = test system: SNB-75 CNS
CCRF-CEM leukemia = test system: CCRF-CEM leukemia
LOX IMVI melanoma = test system: LOX IMVI melanoma
ACHN renal = test system: ACHN renal
SK-MEL-5 melanoma = test system: SK-MEL-5 melanoma
IGROV1 ovarian = test system: IGROV1 ovarian
NCI-H23 lung = test system: NCI-H23 lung
MDA-N = test system: MDA-N
SNB-19 CNS = test system: SNB-19 CNS
MALME-3M melanoma = test system: MALME-3M melanoma
SF-268 CNS = test system: SF-268 CNS
UACC-62 melanoma = test system: UACC-62 melanoma
U251 CNS = test system: U251 CNS
NCI-H522 lung = test system: NCI-H522 lung
BT-549 breast = test system: BT-549 breast
EKVX NSCLC = test system: EKVX NSCLC
RPMI-8226 leukemia = test system: RPMI-8226 leukemia
DU-145 prostate = test system: DU-145 prostate
KM12 colon = test system: KM12 colon
OVCAR-5 ovarian = test system: OVCAR-5 ovarian
NCI/ADR-RES ovarian = test system: NCI/ADR-RES ovarian
A549 NSCLC = test system: A549 NSCLC
786-0 renal = test system: 786-0 renal
UO-31 renal = test system: UO-31 renal
CAKI-1 renal = test system: CAKI-1 renal

`CC(C)C(NC(=O)C(C(C)C)N(C)C)C(=O)N(C)C(C(=O)N1CCCC1C(=O)N1CCCC1C(=O)NCc1ccccc1)C(C)C` (stereo unspecified) (ξNMe2Val-V[NMeV]PP-NHBn; configuration not given here) gave a TGI (SW-620 colon) greater than 100000 nM, a TGI (HOP-62 NSCLC) greater than 100000 nM and a TGI (OVCAR-4 ovarian) greater than 100000 nM. It also gave a TGI (MDA-MB-231 breast) of 0.242 nM, a TGI (COLO 205 colon) of 0.16 nM and a TGI (NCI-H460 lung) of 22.7 nM. The TGI (RXF 393 renal) was greater than 100000 nM, the TGI (SK-OV-3 ovarian) was greater than 100000 nM and the TGI (HL-60(TB) leukemia) was less than 0.1 nM. For the same compound, the TGI (SNB-75 CNS) was 53800 nM, the TGI (CCRF-CEM leukemia) was 1.44 nM and the TGI (LOX IMVI melanoma) was 0.253 nM. The TGI (ACHN renal) was greater than 100000 nM, the TGI (SK-MEL-5 melanoma) was 0.265 nM and the TGI (IGROV1 ovarian) was greater than 100000 nM. It also gave a TGI (NCI-H23 lung) greater than 100000 nM, a TGI (MDA-N) of less than 0.1 nM and a TGI (SNB-19 CNS) greater than 100000 nM. The TGI (MALME-3M melanoma) was greater than 100000 nM, the TGI (SF-268 CNS) was greater than 100000 nM and the TGI (UACC-62 melanoma) was 10.5 nM. It also gave a TGI (U251 CNS) of 3110 nM, a TGI (NCI-H522 lung) of 418 nM and a TGI (BT-549 breast) of 78.8 nM. The GI50 (EKVX NSCLC) was less than 0.1 nM, the TGI (EKVX NSCLC) was greater than 100000 nM and the TGI (RPMI-8226 leukemia) was greater than 100000 nM. The TGI (DU-145 prostate) was 11.7 nM, the TGI (KM12 colon) was less than 0.1 nM and the TGI (OVCAR-5 ovarian) was 206 nM. For the same compound, the GI50 (NCI/ADR-RES ovarian) was 264 nM, the TGI (NCI/ADR-RES ovarian) was 7390 nM and the TGI (A549 NSCLC) was greater than 100000 nM. It also gave a TGI (786-0 renal) greater than 100000 nM, a TGI (UO-31 renal) greater than 100000 nM and a TGI (CAKI-1 renal) greater than 100000 nM.
